SMILES strings stand for the structures. Where a SMILES comes first, the peptide text is derived from it. Some results are limits rather than exact numbers.

In the assay the target is T1, Interleukin-23 receptor (Homo sapiens, UniProt Q5VWK5).
T1 sequence (Q5VWK5 whole entry): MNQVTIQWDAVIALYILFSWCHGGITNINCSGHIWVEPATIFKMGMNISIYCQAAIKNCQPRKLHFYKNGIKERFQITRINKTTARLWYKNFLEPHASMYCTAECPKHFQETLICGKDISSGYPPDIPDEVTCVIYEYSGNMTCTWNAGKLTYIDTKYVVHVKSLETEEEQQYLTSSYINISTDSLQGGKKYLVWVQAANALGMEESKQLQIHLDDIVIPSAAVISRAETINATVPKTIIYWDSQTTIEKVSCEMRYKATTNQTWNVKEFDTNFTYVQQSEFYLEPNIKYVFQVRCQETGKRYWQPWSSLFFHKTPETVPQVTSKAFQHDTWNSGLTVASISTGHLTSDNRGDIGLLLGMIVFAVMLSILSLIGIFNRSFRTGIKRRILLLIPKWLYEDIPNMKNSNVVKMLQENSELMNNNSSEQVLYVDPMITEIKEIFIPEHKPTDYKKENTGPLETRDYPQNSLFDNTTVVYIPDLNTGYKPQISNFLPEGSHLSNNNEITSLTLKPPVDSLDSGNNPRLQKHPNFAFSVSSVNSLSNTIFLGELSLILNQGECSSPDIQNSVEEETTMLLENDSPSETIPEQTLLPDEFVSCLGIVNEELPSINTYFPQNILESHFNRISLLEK
The experiment in a line: Inhibition of interleukin-23 binding to human interleukin-23 receptor incubated for 2 hrs by competitive binding ELISA. Background: ELISA stands for enzyme-linked immunosorbent assay.
Usually IC50 stands for the concentration that gives 50% inhibition. The low end stands for higher potency, the high end for lower potency. For `CC(=O)N[C@@H](CS)C(=O)N[C@@H](C)C(=O)N[C@@H](CC(=O)O)C(=O)N[C@@H](Cc1c[nH]c2ccccc12)C(=O)N[C@H](C(=O)N[C@@H](CS)C(=O)N[C@@H](Cc1ccc(O)cc1)C(=O)NC1(C(=O)N[C@@H](Cc2cnc[nH]2)C(=O)N[C@H](C(=O)N[C@@H](Cc2ccccc2)C(=O)NCC(=O)NCCOCC(=O)N[C@H](CCCCN)C(N)=O)[C@@H](C)O)Cc2ccccc2C1)C(C)C`, the IC50 is greater than 1000 nM.

In turn, `CC(=O)NCC(=O)N[C@@H](CC(=O)O)C(=O)N[C@@H](Cc1cnc[nH]1)C(=O)N[C@@H](CCCCN)C(=O)N[C@@H](CS)C(=O)N[C@@H](CO)C(=O)N[C@@H](CO)C(=O)N[C@@H](Cc1c[nH]c2ccccc12)C(=O)N[C@@H](CCC(=O)O)C(=O)N[C@@H](CS)C(=O)N[C@@H](Cc1ccc(O)cc1)C(=O)N[C@@H](Cc1c[nH]c2ccccc12)C(=O)N[C@@H](Cc1cnc[nH]1)C(=O)N[C@H](C(=O)N[C@@H](Cc1ccccc1)C(=O)NCC(N)=O)[C@@H](C)O` (Ac-GDHKCSSWECYWHTFG-NH2) displayed an IC50 of 500 to 1000 nM. In turn, `CC(=O)NCC(=O)NCC(=O)N[C@H](C(=O)N[C@@H](CCC(=O)O)C(=O)N[C@@H](CS)C(=O)N[C@@H](CC(N)=O)C(=O)N[C@@H](CC(=O)O)C(=O)N[C@@H](Cc1c[nH]c2ccccc12)C(=O)N[C@@H](CCC(N)=O)C(=O)N[C@@H](CS)C(=O)N[C@@H](Cc1ccc(O)cc1)C(=O)N[C@@H](Cc1c[nH]c2ccccc12)C(=O)N[C@@H](Cc1cnc[nH]1)C(=O)N[C@H](C(=O)N[C@@H](Cc1ccccc1)C(=O)NCC(N)=O)[C@@H](C)O)C(C)C` (Ac-GGVECNDWQCYWHTFG-NH2) returned an IC50 of 500 to 1000 nM. In the case of `CC(C)[C@H](NC(=O)[C@H](Cc1c[nH]c2ccccc12)NC(=O)[C@H](CC(=O)O)NC(=O)[C@H](C)NC(=O)[C@@H](N)CS)C(=O)N[C@@H](CS)C(=O)N[C@@H](Cc1ccc(O)cc1)C(=O)N[C@@H](Cc1cccc2ccccc12)C(=O)N[C@@H](Cc1cnc[nH]1)C(=O)N[C@H](C(=O)N(C)[C@@H](Cc1ccccc1)C(N)=O)[C@@H](C)O`, the IC50 was greater than 1000 nM. As for `CC1CSC[C@@H](C(=O)N[C@@H](Cc2ccc(O)cc2)C(=O)N[C@@H](Cc2c[nH]c3ccccc23)C(=O)N[C@@H](CCCNC(=N)N)C(=O)N[C@@H](CCC(=O)O)C(=O)N[C@@H](CC(N)=O)C(=O)NCC(=O)NCCOCC(=O)N[C@H](CCCCN)C(N)=O)NC(=O)[C@H](CCC(N)=O)NC(=O)[C@H](Cc2c[nH]c3ccccc23)NC(=O)[C@H](CC(=O)O)NC(=O)[C@H](CCC(N)=O)NC1=O` (some centres undefined), the figure is 6000 nM; as for `CC(=O)N[C@@H](CS)C(=O)N[C@@H](C)C(=O)N[C@@H](CC(=O)O)C(=O)N[C@@H](Cc1c[nH]c2ccccc12)C(=O)N[C@H](C(=O)N[C@@H](CS)C(=O)N[C@@H](Cc1ccc(O)cc1)C(=O)N[C@@H](Cc1c[nH]c2ccccc12)C(=O)N[C@@H](Cc1cnc[nH]1)C(=O)N[C@@H](CCCNC(=N)N)C(=O)N[C@@H](CS)C(=O)NCC(=O)N[C@@H](Cc1c[nH]c2ccccc12)C(=O)N[C@@H](Cc1c[nH]c2ccccc12)C(=O)NCC(=O)N[C@@H](CS)C(N)=O)C(C)C` (Ac-CADWVCYWHRCGWWGC-NH2), greater than 1000 nM; as for `CC(=O)N[C@@H](CS)C(=O)N[C@H](C(=O)N[C@H](C(=O)N[C@@H](Cc1c[nH]c2ccccc12)C(=O)N[C@@H](CCC(=O)O)C(=O)N[C@@H](CS)C(=O)N[C@@H](Cc1ccc(O)cc1)C(=O)N[C@@H](Cc1c[nH]c2ccccc12)C(=O)N[C@@H](Cc1cnc[nH]1)C(=O)N[C@@H](CCC(N)=O)C(=O)N[C@@H](Cc1ccccc1)C(=O)NCC(N)=O)[C@@H](C)O)[C@@H](C)O` (Ac-CTTWECYWHQFG-NH2), less than 500 nM.

The compound `CC(=O)N[C@@H](CS)C(=O)N[C@@H](CCC(N)=O)C(=O)N[C@H](C(=O)N[C@@H](Cc1c[nH]c2ccccc12)C(=O)N[C@@H](CCC(N)=O)C(=O)N[C@@H](CS)C(=O)N[C@@H](Cc1ccc(O)cc1)C(=O)N[C@@H](Cc1c[nH]c2ccccc12)C(=O)N[C@@H](CCCNC(=N)N)C(=O)N(C)CC(=O)N[C@@H](CC(N)=O)C(=O)NCC(=O)NCCOCC(=O)N[C@H](CCCCN)C(N)=O)[C@@H](C)O` showed an IC50 greater than 1000 nM. `NC(=O)CNC(=O)[C@H](Cc1ccc(O)cc1)NC(=O)[C@H](Cc1cnc[nH]1)NC(=O)[C@H](Cc1cnc[nH]1)NC(=O)[C@H](Cc1c[nH]c2ccccc12)NC(=O)[C@H](Cc1ccc(O)cc1)NC(=O)[C@H](CS)NC(=O)[C@H](CCC(=O)O)NC(=O)[C@H](Cc1c[nH]c2ccccc12)NC(=O)[C@H](CC(N)=O)NC(=O)[C@H](CO)NC(=O)[C@@H](N)CS` (H-CSNWECYWHHYG-NH2) displayed an IC50 of 500 to 1000 nM. Turning to `CC(=O)N[C@H](CCCCN)C(=O)N[C@@H](CS)C(=O)N[C@@H](C)C(=O)N[C@@H](CC(=O)O)C(=O)N[C@@H](Cc1c[nH]c2ccccc12)C(=O)N[C@H](C(=O)N[C@@H](CS)C(=O)N[C@@H](Cc1ccc(O)cc1)C(=O)N[C@@H](Cc1c[nH]c2ccccc12)C(=O)N[C@@H](Cc1cnc[nH]1)C(=O)N[C@H](C(=O)N[C@@H](Cc1ccccc1)C(=O)NCC(=O)O)[C@@H](C)O)C(C)C`, the IC50 is greater than 1000 nM. In turn, `CC(=O)N[C@@H](CS)C(=O)N[C@@H](C)C(=O)N[C@@H](CC(=O)O)C(=O)N[C@@H](Cc1c[nH]c2ccccc12)C(=O)N[C@H](C(=O)N[C@@H](CS)C(=O)N[C@@H](Cc1ccc(O)cc1)C(=O)N[C@@H](Cc1c[nH]c2ccccc12)C(=O)N[C@@H](Cc1cnc[nH]1)C(=O)N[C@@H](CC(N)=O)C(=O)N[C@@H](Cc1cnc[nH]1)C(=O)N[C@@H](CO)C(=O)N[C@@H](CCC(=O)O)C(=O)NCC(=O)N[C@@H](CO)C(=O)NCC(N)=O)C(C)C` (Ac-CADWVCYWHNHSEGSG-NH2) registered an IC50 of 500 to 1000 nM.

Turning to `N=C(N)NCCC[C@H](NC(=O)[C@H](Cc1c[nH]c2ccccc12)NC(=O)[C@H](Cc1ccc(O)cc1)NC(=O)[C@@H]1CSCCCC(=O)N[C@@H](CCC(N)=O)C(=O)N[C@@H](CC(=O)O)C(=O)N[C@@H](Cc2c[nH]c3ccccc23)C(=O)N[C@@H](CCC(N)=O)C(=O)N1)C(=O)N[C@@H](CCC(=O)O)C(=O)N[C@@H](CC(N)=O)C(=O)NCC(=O)NCCOCC(=O)N[C@H](CCCCN)C(N)=O`, the IC50 is 6000 nM. In the case of `CC(=O)N[C@@H](CS)C(=O)N[C@@H](C)C(=O)N[C@@H](CC(=O)O)C(=O)N[C@@H](Cc1c[nH]c2ccccc12)C(=O)N[C@H](C(=O)N[C@@H](CS)C(=O)N[C@@H](Cc1ccc(O)cc1)C(=O)N[C@@H](Cc1c[nH]c2ccccc12)C(=O)N[C@@H](Cc1cnc[nH]1)C(=O)N[C@H](C(=O)N[C@@H](Cc1ccccc1)C(=O)NCC(=O)O)[C@@H](C)O)C(C)C` it was less than 500 nM; in that of `CC(=O)N[C@@H](CS)C(=O)N[C@@H](C)C(=O)N[C@@H](CC(=O)O)C(=O)N[C@@H](Cc1c[nH]c2ccccc12)C(=O)N[C@H](C(=O)N[C@@H](CS)C(=O)N[C@@H](Cc1ccc(O)cc1)C(=O)N[C@@H](Cc1c[nH]c2ccccc12)C(=O)N[C@@H](Cc1cnc[nH]1)C(=O)N[C@H](C(=O)N[C@@H](Cc1ccccc1)C(=O)NCC(=O)N[C@@H](C)C(=O)N1CC[C@H]1C(=O)N[C@H](CCCCN)C(=O)O)[C@@H](C)O)C(C)C`, 100 to 1000 nM; in that of `CC(=O)N[C@@H](CS)C(=O)N[C@@H](CCC(N)=O)C(=O)N[C@H](C(=O)N[C@@H](Cc1c[nH]c2ccccc12)C(=O)N[C@@H](CCC(N)=O)C(=O)N[C@@H](CS)C(=O)N[C@@H](Cc1ccc(O)cc1)C(=O)N[C@@](C)(Cc1ccccc1)C(=O)N[C@@H](CCC(C)C)C(=O)N[C@@H](CCC(=O)O)C(=O)N[C@@H](CC(N)=O)C(=O)NCC(N)=O)[C@@H](C)O`, 30000 nM.

With `CC(C)[C@H](NC(=O)[C@H](Cc1c[nH]c2ccccc12)NC(=O)[C@H](CC(=O)O)NC(=O)[C@H](C)NC(=O)[C@@H](N)CS)C(=O)N[C@@H](CS)C(=O)N[C@@H](Cc1ccc(O)cc1)C(=O)N[C@@H](Cc1cccc2ccccc12)C(=O)N[C@@H](Cc1cnc[nH]1)C(=O)N[C@H](C(=O)N[C@@H](Cc1ccccc1)C(=O)NCC(N)=O)[C@@H](C)O`, the IC50 was 500 to 1000 nM. As for `N=C(N)NCCC[C@H](NC(=O)[C@H](Cc1c[nH]c2ccccc12)NC(=O)[C@H](Cc1ccc(O)cc1)NC(=O)[C@@H]1CCSCc2ccc(cc2)C(=O)N[C@@H](CCC(N)=O)C(=O)N[C@@H](CC(=O)O)C(=O)N[C@@H](Cc2c[nH]c3ccccc23)C(=O)N[C@@H](CCC(N)=O)C(=O)N1)C(=O)N[C@@H](CCC(=O)O)C(=O)N[C@@H](CC(N)=O)C(=O)NCC(=O)NCCOCC(=O)N[C@H](CCCCN)C(N)=O`, the figure is greater than 30000 nM; as for `CC(=O)N[C@@H](CS)C(=O)N[C@@H](CCC(N)=O)C(=O)N[C@H](C(=O)N[C@@H](Cc1c[nH]c2ccccc12)C(=O)N[C@@H](CCC(N)=O)C(=O)N[C@@H](CS)C(=O)N[C@@H](Cc1ccc(O)cc1)C(=O)N[C@@H](Cc1c[nH]c2ccccc12)C(=O)N[C@@H](CCCNC(=N)N)C(=O)N[C@@H](CCC(=O)O)C(=O)N[C@@H](CC(N)=O)C(=O)NCC(N)=O)[C@@H](C)O` (Ac-CQTWQCYWRENG-NH2), less than 500 nM; as for `CC(=O)N[C@@H](CS)C(=O)N[C@@H](CCC(N)=O)C(=O)N[C@H](C(=O)N[C@@H](Cc1c[nH]c2ccccc12)C(=O)N[C@@H](CCC(N)=O)C(=O)N[C@@H](CS)C(=O)N[C@@H](Cc1ccc(O)cc1)C(=O)N[C@@H](Cc1c[nH]c2ccccc12)C(=O)N[C@H](CC(C)C)C(=O)N[C@@H](CCC(=O)O)C(=O)N[C@@H](CC(N)=O)C(=O)NCC(N)=O)[C@@H](C)O`, 319 nM.
